Results on one molecule are retold here after patent US12226396B2, “Gluconic acid derivatives for use in the treatment and/or prevention of microbial infections” (GEDEA BIOTECH AB, priority 2017, dated 2025).

SMILES strings stand for the structures.

The test system of test [1] is C. albicans. As to the kind of experiment: Mature biofilm cell survival, serial dilution plating on YPD. The format is cell-based, Candida albicans. Here is the method:
(§1) The plated cells were incubated for 24 h at 37° C. and visually analyzed. The cells from the mature biofilm treated with water were used as a control. […] At the concentrations of 0.2 and 0.5 g/ml after 5 h of incubation the cell viability was decreased by about 100 times for both C. albicans and C. glabrata.

Test [2] relates to C. glabrata. The test is described as above. To be noted: 0.2 and 0.5 g/ml, 5 h of incubation, 37° C. The format is cell-based, Candida glabrata. The method, then:
as §1

Test [3] relates to Lactobacillus iners CCUG 44025. In words: MIC microdilution test. The format is cell-based. To be noted: CAMHB, anaerobic conditions, 120 hours. Here is the method: Gardnerella vaginalis, Lactobacillus iners, and Lactobacillus crispatus were recovered by CCUG (Culture Collection of University of Gothenburg). Subculture plates were made for G. vaginalis on Chocolate-GL plates and Lactobacillus spp. on M.R.S. agar plates at 5% CO2, 36° C. The inoculums were prepared from the subculture plates. Colonies were inoculated to culture tubes with 5 ml test medium and vortexed 2 min with about 10 glass beads a 3 mm in diameter. Colonies were taken until the turbidity of the solution was OD475 of 0.4-0.5. The bacterial solutions were checked in light microscopy at ×40 with phase contrast to make sure that the cells were dispersed. Each bacterial suspension was diluted in its test medium, 1:100, to equal 1-3×10^6 CFU/ml. The microbial solutions were stored at 20° C. during the preparation of the inoculums
The test substance solution was prepared aseptically at 1 g/ml in sterile H2O. The first row of wells was filled with 100 μl substance and then 2 fold dilutions were done vertically in 8 steps.
The pH was also measured for all dilutions, n=1, pH=6.8-7.1

Test [4] has as its system Acetinobacter baumanii CCUG 57035. In words: MIC microdilution test. The format is cell-based. Particulars: CCUG 57035, aerobic. The method, then: (§2) The test substance solution was prepared aseptically at 1 g/ml in sterile H2O. […] After 48 and 72 hours of incubation, the OD was measured and ocular assessments were done. […] All strains were recovered from microbanks and streak and subculture plates were made. The aerobes on TSA plates, the fastidious aerobes on horse blood plates and the anaerobe on FAA plates. […] At the time of testing, loopfuls of colonies selected from 18- to 24-hour agar plates for the aerobes and fastidious aerobes were suspended in 5 ml saline in 10 ml tubes containing 10 glass beads a 3 mm in diameter. […] The cell suspensions were then vortexed vigorously for 1 minute to obtain a turbid suspension. Each suspension of the aerobes and fastidious aerobes was adjusted to equal OD 0.28 at 475 nm using a spectrophotometer, which correlates approximately to 1-3×10^8 CFU/ml with most species. For the anaerobe, the OD measurement turned out to be difficult due to the use of blood in the culture medium. […] The aerobes and fastidious aerobes were further diluted in saline 10 times so that the inoculum concentration equaled to […]. The anaerobe was not diluted but used directly as is. The different aerobic and fastidious aerobic bacterial suspensions were transferred to respective wells of a 96 well plate. A. baumannii, E. coli, and P. aeruginosa were placed in one row, the Staphylococci spp. were placed in a second row, and the fastidious aerobes were placed in a third row of the plate. The anaerobe was transferred from a 25 ml multichannel pipette reservoir. The Microdilution Preparations and the MIC tests were performed as in example 13.
For orientation: Broth dilution looks for growth in wells or tubes with falling amounts of substance.

Test [5] concerns Beta-Hemolytic Streptococci Groups C Streptococcus dysgalactiae ss equisimilis CCUG 4211. In words: MIC microdilution test. It is filed as cell-based. Particulars: CCUG 4211, 5% CO2. Here is the method:
as §2

In test [6] the test system is Beta-Hemolytic Streptococci Groups G Streptococcus dysgalactiae ss equisimilis CCUG 7975. As to the kind of experiment: MIC microdilution test. The format is cell-based. To be noted: CCUG7975, 5% CO2. The method, then: as §2
Test [7] relates to Escherichia coli CCUG 3274/ATCC 10536. As to the kind of experiment: MIC microdilution test. It is filed as cell-based. To be noted: CCUG 3274, aerobic. Here is the method: as §2
Test [8] concerns Porphyromonas gingivalis CCUG 25893/ATCC 33277. In words: MIC microdilution test. It is filed as cell-based. Particulars: CCUG 25893, strict anaerobic conditions. The method, then: as §2
The test system of test [9] is Pseudomonas aeruginosa (PAO1) CCUG 56489/ATCC 15692. In words: MIC microdilution test. The format is cell-based. To be noted: CCUG 56489, aerobic. Here is the method: as §2
The subject of test [10] is Staphylococcus aureus CCUG 15915/ATCC 29213. As to the kind of experiment: MIC microdilution test. Particulars: CCUG 15915, aerobic. It is filed as cell-based. The method, then: as §2
In test [11] the test system is Staphylococcus epidermidis CCUG 23118. As to the kind of experiment: MIC microdilution test. It is filed as cell-based. To be noted: CCUG 23118, aerobic. Here is the method: as §2
For test [12], the system named is Streptococcus agalactiae CCUG 29376. As to the kind of experiment: MIC microdilution test. It is filed as cell-based. To be noted: CCUG 29376, 5% CO2. Here is the method: as §2
For test [13], the system named is Streptococcus pyogenes CCUG 47803/ATCC 700294. As to the kind of experiment: MIC microdilution test. The format is cell-based. To be noted: CCUG 47803, 5% CO2. The method, then:
as §2

On to `O=C1O[C@H](CO)[C@@H](O)[C@H](O)[C@H]1O` [GDA, glucono-δ-lactone], for which the “decrease of cell viability” value in test [1] (0.2 and 0.5 g/ml, 5 h of incubation, 37° C) is “about 100 times”; in [1] (0.5 g/ml, 73 h of incubation), “about 1000 times”; in [2], “about 100 times”. Further, the “MIC (g/ml)” value is 0.0078 g/ml in test [3]; 0.0031 g/ml in [4]; 0.0016 g/ml in [5]; 0.0031 g/ml in [6]; 0.0063 g/ml in test [7]; 0.0031 g/ml in test [8]. The “MIC (g/ml)” value in [9] is on record as 0.0031 g/ml; in [10], 0.0063 g/ml; in test [11], 0.0031 g/ml; in [12] it was 0.0031 g/ml; in [13], 0.0031 g/ml.
